The source of these data is patent publication US20050228180A1, “Alpha, omega-dicarboximide derivatives as useful uro-selective a1a adrenoceptor blockers” (priority 2002, published 2005).

Counter-ions that a name gives are not always drawn.

For test [1], the target named is T1, α1A adrenoceptor (Rattus norvegicus, UniProt P43140).
T1 construct: from tissue; host or cells: rat submaxillary gland membranes
T1 sequence (P43140 1-466): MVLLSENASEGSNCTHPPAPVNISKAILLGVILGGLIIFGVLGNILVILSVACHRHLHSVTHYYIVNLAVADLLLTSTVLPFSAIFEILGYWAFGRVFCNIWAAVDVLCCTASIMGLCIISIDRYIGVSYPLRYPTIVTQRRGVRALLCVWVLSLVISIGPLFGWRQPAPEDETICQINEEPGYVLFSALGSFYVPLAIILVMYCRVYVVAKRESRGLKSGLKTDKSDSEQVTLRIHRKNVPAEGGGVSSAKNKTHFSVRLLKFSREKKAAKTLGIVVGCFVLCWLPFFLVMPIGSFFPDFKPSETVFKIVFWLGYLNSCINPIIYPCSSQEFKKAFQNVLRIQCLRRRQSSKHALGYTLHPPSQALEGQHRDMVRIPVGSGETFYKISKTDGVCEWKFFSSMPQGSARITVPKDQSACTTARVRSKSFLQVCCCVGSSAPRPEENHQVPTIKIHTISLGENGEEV
Nature of the test: Radioligand binding, [3H] prazosin displacement, rat submaxillary membranes. Particulars: for Ki: [3H] prazosin displacement, rat submaxillary membranes, read-out: Affinity (Ki) α1A (Rat Submaxillary); for α1B/α1A: ratio of binding affinities, rat liver / rat submaxillary. The method, then:
(§1) Receptor binding assays were performed using native a-adrenoceptors. The affinity of different compounds for α1A and α1B adrenoceptor subtypes was evaluated by studying their ability to displace specific [^3H] prazosin binding from the membranes of rat submaxillary and liver respectively (Michel et al., Br J Pharmacol, 1989: 98:883). The binding assays were performed according to U+Prichard et al. (Eur J Pharmacol, 1978; 50:87 with minor modifications.
(§2) Submaxillary glands were isolated immediately after sacrifice. The liver was perfused with buffer (Tris HCl 50 mM, NaCl 100 mM, 10 mM EDTA pH 7.4). The tissues were homogenised in 10 volumes of buffer (Tris HCl 50 mM, NaCl 100 mM, 10 mM EDTA pH 7.4). The homogenate was filtered through two layers of wet gauge and filtrate was centrifuged at 500 g for 10 min. The supernatant was subsequently centrifuged at 40,000 g for 45 min. The pellet thus obtained was resuspended in the same volume of assay buffer (Tris HCl 50 mM, 5 mM EDTA pH 7.4) and was stored at −70° C. until the time of assay.
(§3) The membrane homogenates (150-250 μg protein) were incubated in 250 μl of assay buffer (Tris HCl 50 mM, EDTA 5 mM, pH 7.4) at 24-25° C. for 1 hour. Non specific binding was determined in the presence of 300 nM prazosin. The incubation was terminated by vacuum filtration over GF/B fibre filters. The filters were then washed with ice cold 50 mM Tris HCl buffer (pH 7.4). The filtermats were dried and bound radioactivity retained on filters was counted. The IC50 and Kd were estimated by using the non-linear curve-fitting program using G Pad Prism software. The value of inhibition constant Ki was calculated from competitive binding studies by using Cheng & Prusoff equation (Cheng & Prusoff, Biochem Pharmacol, 1973, 22: 3099-3108), Ki=IC50/(1+L/Kd) where L is the concentration of [^3H] prazosin used in the particular experiment (Table 1).

Test [2] has as its target T2, α1B adrenoceptor (Rattus norvegicus, UniProt P15823).
T2 construct: from tissue; host or cells: rat liver membranes
T2 sequence (P15823 1-515): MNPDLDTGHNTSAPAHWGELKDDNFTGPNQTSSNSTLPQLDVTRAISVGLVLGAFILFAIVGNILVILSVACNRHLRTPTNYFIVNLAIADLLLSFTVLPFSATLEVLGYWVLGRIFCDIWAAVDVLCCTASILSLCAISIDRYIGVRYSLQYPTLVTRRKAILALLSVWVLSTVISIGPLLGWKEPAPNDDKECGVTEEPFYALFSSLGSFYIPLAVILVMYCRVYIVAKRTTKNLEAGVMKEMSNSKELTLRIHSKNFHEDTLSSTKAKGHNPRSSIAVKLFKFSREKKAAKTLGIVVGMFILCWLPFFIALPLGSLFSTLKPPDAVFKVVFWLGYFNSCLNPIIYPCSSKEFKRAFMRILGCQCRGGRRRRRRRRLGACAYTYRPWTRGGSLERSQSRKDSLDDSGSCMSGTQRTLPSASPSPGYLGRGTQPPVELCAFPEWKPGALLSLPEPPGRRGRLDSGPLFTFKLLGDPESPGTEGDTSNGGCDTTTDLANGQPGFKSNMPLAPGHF
Description: Radioligand binding, [3H] prazosin displacement, rat liver membranes. Particulars: read-out: Affinity (Ki) α1B (Rat Liver). Here is the method: as §1, §2, §3

The Ki is the dissociation constant of the complex between target and ligand, obtained from inhibition or displacement.

For the molecule “1-[4-(2-Ethoxyphenyl)piperazin-1-yl]-3-(2,6-dioxopiperadin-1-yl)ethane hydrochloride [compound 05]”, in test [1], the Ki was 70 nM and the α1B/α1A was found to be 20. The Ki in test [2] was determined as 1380 nM.

Turning to `Cl.O=C1C2CC=CCC2C(=O)N1CC(O)CN1CCN(c2ccccc2O)CC1` (centres unmarked) [Compound No. 14, 2-[3-{4-(2-Hydroxyphenyl)piperazin-1-yl}-2-hydroxypropyl]-3a,4,7,7a-tetrahydro-1H-isoindole-1,3(2H)-dione hydrochloride], in test [1], the Ki was 49 nM and the α1B/α1A is reported as 10. For the same molecule, in test [2], the Ki stood at 504 nM.

Turning to `CCOc1ccccc1N1CCN(CCN2C(=O)C3CC=CCC3C2=O)CC1.Cl` (centres unmarked) [Compound No. 15, 2-[2-{4-(2-Ethoxyphenyl)piperazin-1-yl}ethyl]-3a,4,7,7a-tetrahydro-1H-isoindole-1,3(2H)-dione hydrochloride], in test [1], the Ki stood at 35 nM and the α1B/α1A was determined as 10. In addition, the Ki in test [2] is 346 nM.

Consider `Cl.O=C1C2CC=CCC2C(=O)N1CCN1CCN(c2ccccc2OCC(F)(F)F)CC1` (centres unmarked) [Compound No. 16, 2-[2-{4-(2-(2,2,2-Trifluoroethoxy)phenyl)piperazin-1-yl}ethyl]-3a,4,7,7a-tetrahydro-1H-isoindole-1,3(2H)-dione hydrochloride], for which, in test [1], the Ki turned out to be 19 nM and the α1B/α1A stood at 14. Besides, in test [2], the Ki turned out to be 267 nM.

Turning to `CCOc1ccccc1N1CCN(CCCN2C(=O)C3CC(O)C(Cl)CC3C2=O)CC1.Cl` (centres unmarked) [Compound No. 17, hydrochloride], the Ki in test [1] is 1.6 nM; in test [2] it was 80 nM.

Take `O=C1C2CC=CCC2C(=O)N1CCC[N+]1([O-])CCN(c2ccccc2O)CC1` (centres unmarked) [Compound No. 22, 2-[3-{4-(2-Hydroxyphenyl)piperazin-1-yl, 1-N-oxide}propyl]-3a,4,7,7a-tetrahydro-1H-isoindole-1,3(2H)-dione]: in test [1], the Ki was found to be 1590 nM and the α1B/α1A is on record as 0.7. Moreover, the Ki in test [2] worked out at 1090 nM.

For the molecule `CCOc1ccc(O)cc1N1CCN(CCCN2C(=O)C3CC=CCC3C2=O)CC1` (centres unmarked) [Compound No. 24, 2-[3-{4-(2-Ethoxy-5-hydroxyphenyl)piperazin-1-yl}propyl]-3a,4,7,7a-tetrahydro-1H-isoindole-1,3-(2H)-dione hydrochloride], the inhibitory constant (Ki) is 5.9 nM in test [1] and 495 nM in test [2]. The α1B/α1A in test [1] came out at 84.

Consider `CC(C)Oc1cccc(O)c1N1CCN(CCCN2C(=O)C3CC=CCC3C2=O)CC1` (centres unmarked) [Compound No. 27, 2-[3-{4-(2-isopropoxy-6-hydroxyphenyl)piperazin-1-yl}propyl]-3a,7,7a-tetrahydro-1H-isoindole-1,3(2H)-dione hydrochloride], for which, in test [1], the Ki was determined as 306 nM and the α1B/α1A was determined as 16. Moreover, the Ki in test [2] is above 5000 nM.

Take `CC(C)Oc1c(O)cccc1N1CCN(CCCN2C(=O)C3CC=CCC3C2=O)CC1` (centres unmarked) [Compound No. 35, 2-[3-{4-(2-Isopropoxy-3-hydroxyphenyl)piperazin-1-yllpropyl]-3a,4,7,7a-tetrahydro-1H-isoindole-1,3(2H)-dione hydrochloride]: in test [1], the Ki came to 38 nM and the α1B/α1A is 15. The Ki in test [2] worked out at 582 nM.

Consider `CC(C)Oc1ccc(O)cc1N1CCN(CCCN2C(=O)CCCC2=O)CC1` [Compound No. 36, 1-[4-(2-Isopropoxy-5-hydroxyphenyl)piperazin-1-yl]-3-(2,6-dioxopiperdin-1-yl)piperazin-1-yl]-3-(2,6-dioxopiperidin-1-yl)propane hydrochloride], for which the figures for the Ki in test [1] and in test [2] were 11 nM and 571 nM, respectively. Also, the α1B/α1A in test [1] is listed as 52.

On to `CC(C)Oc1cccc(O)c1N1CCN(CCCN2C(=O)CCCC2=O)CC1` [Compound No. 37, 1-[4-(2-Isopropoxy-6-hydroxyphenyl)piperazin-1-yl]-3-(2,6-dioxopiperdin-1-yl)propane hydrochloride], for which the Ki was 462 nM in test [1] and above 1000 nM in test [2]. The α1B/α1A in test [1] is given as above 2.

In the case of `CC(C)Oc1c(O)cccc1N1CCN(CCCN2C(=O)CCCC2=O)CC1.Cl` [Compound No. 38, 1-[4-(2-Isopropoxy-3-hydroxyphenyl)piperazin-1-yl]-3-(2,6-dioxopiperidin-1-yl)propane hydrochloride], the Ki in test [1] came to 141 nM; in test [2], 760 nM. Further, the α1B/α1A in test [1] came out at 5.

Turning to `Cl.O=C1CCCC(=O)N1CC(O)CN1CCN(c2ccccc2OCC(F)(F)F)CC1` (centres unmarked) [Compound No. 39, 1-[4-{2-(2,2,2-Trifluoroethoxy)phenyl)piperazin-1-yl]-2-hydroxy-3-(2,6-dioxopiperidin-1-yl)propane hydrochloride], in test [1], the Ki was 6.9 nM and the α1B/α1A turned out to be 200. The Ki in test [2] amounted to 1380 nM.

`CC(C)Oc1ccccc1NCCNCCCN1C(=O)[C@H]2CC=CC[C@H]2C1=O` [Compound No. 42, 2-[N-{N′-(2-Isopropoxyphenyl)aminoethyl}aminopropyl]-3a,4,7,7a-tetrahydro-1H-isoindole-1,3(2H)-dione hydrochloride]: in test [1], the Ki turned out to be 19 nM and the α1B/α1A is given as 41. Besides, in test [2], the inhibition constant Ki is 781 nM.

In the case of `Cl.O=C1CCCC(=O)N1CC(O)CN1CCN(c2ccccc2O)CC1` (centres unmarked) [Compound No. 44, 1-[4-(2-hydroxyphenyl)piperazin-1-yl]-2-hydroxy-3-(2,6-dioxopiperidin-1-yl]propane hydrochloride], in test [1], the Ki amounted to 594 nM and the α1B/α1A was 3. Besides, in test [2], the Ki was found to be 1740 nM.

In the case of `O=C1C2CC=CCC2C(=O)N1CCCN1CCN(c2ccccc2-c2ccccc2)CC1` (centres unmarked) [Compound No. 45, 2-[3-{4-(2-Biphenyl)piperazin-1-yl}propyl]-3a,4,7,7a-tetrahydro-1H-isoindole-1,3(2H)-dione hydrochloride], the inhibition constant (Ki) is 8.6 nM in test [1] and 120 nM in test [2]. Moreover, the α1B/α1A in test [1] is recorded as 14.

On to `CC(=O)N(CCCN1C(=O)C2CC=CCC2C1=O)CCNc1ccccc1OC(C)C.Cl` (centres unmarked) [Compound No. 46, 2-[N-{N′-(2-Isopropoxyphenyl)aminoethyl}acetylaminopropyl]-3a,4,7,7a-tetrahydro-1H-isoindole-1,3(2H)-dione hydrochloride], for which, in test [1], the Ki worked out at 379 nM and the α1B/α1A is above 3. For the same molecule, the inhibitory constant (Ki) in test [2] is above 1000 nM.

With `CC(=O)N(CCNCCCN1C(=O)C2CC=CCC2C1=O)c1ccccc1OC(C)C.Cl` (centres unmarked) [Compound No. 47, 2-[N-{N′-(2-Isopropoxyphenyl)acetylaminoethyl}aminopropyl]-3a,4,7,7a-tetrahydro-1H-isoindole-1,3(2H)-dione hydrochloride], in test [1], the Ki came to 299 nM and the α1B/α1A is reported as above 3. Also, in test [2], the Ki is above 1000 nM.

With `CC(C)Oc1ccccc1NCCN(CCO)CCCN1C(=O)[C@H]2CC=CC[C@H]2C1=O` [Compound No. 48, 2-[N-[{N′-(2-Isopropoxyphenyl)aminoethyl}hydroxyethyl]aminopropyl]-3a,4,7,7a-tetrahydro-1H-isoindole-1,3(2H)-dione hydrochloride], in test [1], the inhibitory constant (Ki) was 91 nM and the α1B/α1A was above 11. The inhibition constant (Ki) in test [2] is above 1000 nM.
